In patent US9115122B2, “Non-ATP dependent inhibitors of extracellular signal-regulated kinase (ERK)” (UNIVERSITY OF MARYLAND, BALTIMORE, priority 2012, dated 2015):

Legend:
ERK2 = ERK2 (Rattus norvegicus (Rat), UniProt P63086); experiment: Binding of DRS compound to ERK2 (FIG. 10)
A375 melanoma cells [1] = experiment: Proliferation of A375 melanoma cells (Example 3); format: cell-based
From the text: We examined the effects of these compounds on proliferation of A375 melanoma cells with BRaf mutations that require ERK activation for survival.
Moreover, 76.3 and TMZ also appeared to delay tumor growth in mice harboring A375 tumors indicative of prolonged survival (FIG. 13B).

A375 melanoma cells [2] = experiment: Cell proliferation, fluorescent Cell Titer Blue Assay (Example 1); format: cell-based; settings: Homo sapiens, A-375; 48 hours
Description: (§1) FIG. 5. Dose dependent inhibition of cancer cell proliferation in vitro by SF-3-026 and analogs. A375 (closes circles), RPM17951 (closed squares), HeLa (open circles), or Jurkat (open squares) cells were treated for 48 hours with indicated concentration of (a) SF-3-026, (b) SF-2-027, (c) SF-2-029, or (d) SF-2-030 and cell proliferation was assessed by the fluorescent Cell Titer Blue Assay. The data were reproduced in 3 separate experiments.
(§2) Cells were seeded at 25,000 cells/well in 96-well plate and cultured overnight. Cells were treated for 24 hours with various concentrations of compounds and cell viability or caspase 3/7 activity were measured according to manufacturer's instructions using the fluorescent Cell Titer Blue Assay (Promega) or luminescent Caspase 3/7 Glo Assay (Promega).
(§3) It was next determined whether inhibition of AP-1 proteins by SF-3-026 and analogs affected the proliferation of cancer cells driven by mutations that constitutively activate the ERK1/2 pathway. For these experiments, A375 and RPMI7951 melanoma cells, which have a valine to glutamate mutation on residue 600 in BRaf that causes constitutive ERK1/2 activation, were chosen. Moreover, RPMI7951 cells are resistant to clinically used BRaf inhibitors due to overexpression of MAP3K8 (the gene encoding COT/Tp12) that re-activates ERK1/2 signaling. Both melanoma cells lines were treated with varying doses of SF-3-026 or analogs and cell viability was compared to HeLa cervical carcinoma and Jurkat T-cell leukemia cells, which are p53 defective but contain no known activating mutations in the ERK1/2 pathway.

[3] = tested on: HeLa cervical carcinoma cells; experiment: as above; format: cell-based; settings: Homo sapiens, 48 hours
Description: as §1, §2, §3

[4] = tested on: Jurkat T-cell leukemia cells; experiment: as above; format: cell-based; settings: Homo sapiens, 48 hours
Description: as §1, §2, §3

RPMI7951 melanoma cells = experiment: as above; format: cell-based; settings: Homo sapiens, RPMI-7951; 48 hours
Description: as §1, §2, §3

AP-1 promoter = AP-1 promoter luciferase assay, EGF-stimulated HeLa cells (Example 1); format: cell-based; settings: Homo sapiens, EGF stimulation, 4 hours, read-out: IC50 inhibition of the AP-1 promoter
Description: FIG. 4. Compound SF-3-026 and analogs inhibit SRE and AP-1 transcription factor function. (a) HeLa cells were transfected with constructs containing SRE or AP-1 promoters driving luciferase expression and then stimulated with EGF in the presence or absence of SF-3-026 for 4 hours followed by measurements of luciferase activity. Cells treated with U0126 were used as a positive inhibitor control. (b and c) HeLa cells were prepared and treated as in (a) with the indicated concentrations of SF-3-026 or analogs for 4 hours followed by the measurement of luciferase activity regulated by the SRE (b) or AP-1 (c) promoters. Data in (b and c) were normalized to EGF-only treatment and represent the mean and standard deviation from three independent experiments. (d) Compound SF-3-026 and analogs inhibit MEK1-induced AP-1 transcription factor function. […]
HeLa cells were seeded in 24-well plates (40,000 cells/well) and incubated 18 hours to achieve ˜60-70% confluent. […] The luciferase activity in the cell extracts was determined with a Dual Luciferase Assay System (Promega) according to the manufacturer's instructions. Luciferase activities were monitored with a Lumat LB 9507 luminometer (Berthold Technology) and data were normalized to the amount of protein in each sample. […]

[5] = tested on: MEK1-induced AP-1 promoter activity; experiment: AP-1 promoter luciferase assay, HeLa cells expressing active MEK1 mutant; format: cell-based; settings: Homo sapiens, 4 hours, read-out: IC50 inhibition of MEK1-induced AP-1 promoter activity
Description: FIG. 4. Compound SF-3-026 and analogs inhibit SRE and AP-1 transcription factor function. (a) HeLa cells were transfected with constructs containing SRE or AP-1 promoters driving luciferase expression and then stimulated with EGF in the presence or absence of SF-3-026 for 4 hours followed by measurements of luciferase activity. Cells treated with U0126 were used as a positive inhibitor control. (b and c) HeLa cells were prepared and treated as in (a) with the indicated concentrations of SF-3-026 or analogs for 4 hours followed by the measurement of luciferase activity regulated by the SRE (b) or AP-1 (c) promoters. Data in (b and c) were normalized to EGF-only treatment and represent the mean and standard deviation from three independent experiments. (d) Compound SF-3-026 and analogs inhibit MEK1-induced AP-1 transcription factor function. HeLa cells were transfected with the AP-1 promoter construct and a constitutively active MEK1 mutant in the presence (10 μM) or absence of the MEK1/2 inhibitor (U0126) or an ATP-competitive ERK inhibitor (ERKi) for 4 hours followed by measurements of luciferase activity. (e) Cells expressing the AP-1 promoter and an active MEK-1 construct were treated with the indicated concentrations of SF-3-026 or analogs for 4 hours followed by the measurement of luciferase activity. Data in (e) were normalized to active MEK1-only treatment and represent the mean and standard deviation from three independent experiments.
HeLa cells were seeded in 24-well plates (40,000 cells/well) and incubated 18 hours to achieve ˜60-70% confluent. Cells were transfected with activator protein-1 (pAP1(PMA)-TA-Luc; Clontech) or the serum response element (pGL4.33-SRE; Promega) luciferase reporter plasmids (250 ng/well) using Lipofectamine™ (Invitrogen). After 16 hours, cells were pre-treated with varying amounts of compounds as indicated for 20 minutes, followed by stimulation with EGF (25 ng/mL) for 4.5 hr. In some experiments, cells transfected with the pAP1(PMA)-TA-Luc promoter and a constitutively active MEK1 mutant cDNA were treated with varying amounts of compounds during the last 4 hours of incubation. The luciferase activity in the cell extracts was determined with a Dual Luciferase Assay System (Promega) according to the manufacturer's instructions. Luciferase activities were monitored with a Lumat LB 9507 luminometer (Berthold Technology) and data were normalized to the amount of protein in each sample. […]

A375 melanoma cells [6] = experiment: Caspase 3/7 Glo Assay; format: cell-based; settings: varying doses, 24 hours
Description: FIG. 6. SF-3-030 induces growth inhibition and apoptosis in A375 melanoma cells. A375 were seeded in a 96-well plate and incubated for 18-20 hours. Cells were treated with varying concentrations of SF-3-030 and allowed to incubate for an additional 24 hours. Cell viability was measured using the fluorescent Cell Titer Blue Assay and caspase 3/7 activity was measured using the luminescent Caspase 3/7 Glo Assay. Data represent the average of two experiments performed in duplicate.
as §2
(§4) To test whether the inhibition of cell proliferation was due to an apoptotic response, A375 and HeLa cells were treated with varying doses of SF-3-030 and cell viability along with caspase 3/7 activity was measured.

HeLa cells = experiment: Caspase 3/7 Glo Assay; format: cell-based; settings: varying doses
Description: as §2, §4

[7] = tested on: c-Fos, Fra1, and FosB expression; experiment: Immunoblot of EGF-induced c-Fos, Fra1 and FosB expression in HeLa cells; format: cell-based; settings: EGF 25 ng/mL
Description: FIG. 3. EGF-mediated induction of AP-1 proteins is inhibited by SF-3-026 and SF-3-030. (a) HeLa cells were treated for 10, 30, or 60 min. with EGF (25 ng/mL) in the presence of 50 μM SF-3-026 or 10 μM U0126. Protein lysates were immunoblotted for c-Fos, Fra1, FosB and FosB2. Phosphorylated ERK1/2 is not affected by SF-3-026 and α-tubulin expression is shown for a protein loading control. (b) Protein lysates from HeLa cells treated for 30 min. with EGF in the absence or presence of 10, 25, 50, or 100 μM of SF-3-026 or SF-3-030 were immunoblotted for c-Fos, Fra1, FosB, FosB2, as well as phosphorylated ERK1/2 and MEK1/2. Total ERK2 and α-tubulin expression are shown for protein loading controls. Data are representative of three independent experiments.
Analysis of protein expression levels, activity, and cell proliferation were done as previously described. […] Proteins were separated by SDS-PAGE, analyzed by immunoblotting, and detected using enhanced chemiluminescence (ECL, GE Healthcare, United Kingdom).
The reported half-life for c-Fos is ˜10 minutes and growth factor-mediated stabilization of c-Fos protein expression can be observed within 30-60 minutes, whereas stabilization of Fra1 protein is delayed due to AP-1 regulation of the Fra1 promoter. Thus, growth factor-mediated induction of c-Fos, Fra1, and FosB expression was evaluated following treatment with SF-3-026. […]

Sequence of ERK2 (P63086 whole entry): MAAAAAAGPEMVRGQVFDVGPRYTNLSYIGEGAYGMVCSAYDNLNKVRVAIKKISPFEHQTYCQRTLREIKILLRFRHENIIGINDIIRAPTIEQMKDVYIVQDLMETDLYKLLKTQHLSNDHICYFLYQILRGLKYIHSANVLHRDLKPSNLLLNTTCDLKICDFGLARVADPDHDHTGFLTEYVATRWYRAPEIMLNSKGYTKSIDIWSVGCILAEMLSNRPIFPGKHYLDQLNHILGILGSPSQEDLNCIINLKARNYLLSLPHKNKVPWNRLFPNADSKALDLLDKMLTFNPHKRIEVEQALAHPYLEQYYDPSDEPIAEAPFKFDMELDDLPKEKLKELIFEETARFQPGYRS

SMILES | affinity (site 1 on ERK2) (ERK2) | effect on A375 cell proliferation (A375 melanoma cells [1]) | GI50 (A375 melanoma cells [2]) [µM] | GI50 [3] [µM] | GI50 [4] [µM] | GI50 (RPMI7951 melanoma cells) [µM] | IC50 (AP-1 promoter) [µM] | IC50 [5] [µM] | caspase 3/7 activity in A375 cells (A375 melanoma cells [6]) | caspase 3/7 activity in HeLa cells (HeLa cells) | inhibition of EGF-induced c-Fos, Fra1, and FosB expression [7]
CCOc1ccc(/C=C2\SC(=O)N(CCNc3nc(Cl)nc(Cl)n3)C2=O)cc1 [SF-2-054] | high nM affinity | selective inhibition of A375 cells | – | – | – | – | – | – | – | – | –
O=S1(=O)C=CC(OS(=O)(=O)c2ccc3c(c2)CC=CC3)C1 (centres unmarked) [SF-3-030] | – | – | 7.1 | 29 | > 50 | 4.6 | < 10 | 5 to 10 | dose dependent increase | did not show increased caspase 3/7 activity | higher potency
